Results published in patent US12103904B2, “Benzoylglycine derivatives and methods of making and using same” (Duke University, priority 2016, dated 2024).
In brackets after ≈: the same amount, converted by molar mass.

Columns and labels:
[1] = tested on: N. gonorrhoeae 35/02; test: Minimum Inhibitory Concentration (MIC) on GCB plates; format: cell-based, Neisseria gonorrhoeae; settings: cephalosporin-intermediate resistant strain 35/02
Method: (§1) Non-piliated variants of the indicated strains of Neisseria gonorrhoeae were grown overnight on GCB plates, resuspended in GCB broth with Kellogg's supplements I and II (Kellogg et al. (1963) Neisseria gonorrhoeae. I. Virulence genetically linked to colonial variation. J Bacteriol 85, 1274-1279), 10 mM MgCl2, and 20 mM sodium bicarbonate at a final OD600 of 0.018 (˜1×10^7 cfu/ml). Aliquots (5 μl) of each strain was spotted onto GCB plates containing the compounds at 2-fold dilution intervals. The MIC was defined as the lowest concentration of antibiotic on which fewer than 5 colonies appeared after 24 hrs of incubation.
(§2) FA19 is an antibiotic-susceptible strain (Maness, M. J., and Sparling, P. F. (1973) Multiple antibiotic resistance due to a single mutation in Neisseria gonorrhoeae. J Infect Dis 128, 321-330). 35/02 is a cephalosporin-intermediate resistant strain of N. gonorrhoeae isolated in Sweden in 2002 (Lindberg et al. (2007) Neisseria gonorrhoeae isolates with reduced susceptibility to cefixime and ceftriaxone: association with genetic polymorphisms in penA, mtrR, porB1b, and ponA. Antimicrob Agents Chemother 51, 2117-2122). This strain contains a mosaic penA gene (encoding variants of Penicillin-Binding Protein 2) associated with cephalosporin resistance, but the strain is not fully resistant. […] Lastly, F89 has an MIC of ceftriaxone=2 μg/ml (Unemo et al. (2011) High-level cefixime- and ceftriaxone-resistant N. gonorrhoeae in France: novel penA mosaic allele in a successful international clone causes treatment failure. Antimicrob Agents Chemother 56, 1273-1280).
(§3) “MIC50” refers to an amount, concentration or dosage of a particular test compound that achieves a 50% inhibition of a growth of a target organism. […] Representative results are also illustrated in Table 1.

[2] = tested on: N. gonorrhoeae F89; test: as above; format: cell-based, Neisseria gonorrhoeae; settings: ceftriaxone-resistant strain F89
Method: as §1, §2, §3

[3] = tested on: N. gonorrhoeae HO41; test: as above; format: cell-based, Neisseria gonorrhoeae; settings: ceftriaxone-resistant strain HO41
Method: as §1, §2, §3

[4] = tested on: N. gonorrhoeae FA19; test: as above; format: cell-based, Neisseria gonorrhoeae; settings: antibiotic-susceptible strain FA19
Method: as §1, §2, §3

[5] = tested on: multidrug-resistant H041 N. gonorrhoeae; test: murine gonococcal infection model (in vivo clearance); parameters: species or system mice
Text: FIG. 2 illustrates in vivo efficacy of Example 3 in the murine gonococcal infection model. (A) efficacy of Example 3 administered intraperitoneally. […] (B) efficacy of Example 3 administrated orally. Mice were infected with multidrug-resistant H041 N. gonorrhoeae via an established protocol.
Female Mouse Model of Infection: Female BALB/c mice (Charles River Laboratories, NCI Frederick strain of inbred BALB/cAnNCr mice, strain code 555) were allowed to acclimate to the USU animal facility in autoclaved cages and bedding and with autoclaved water and chow for 10 days. After the acclimation period and […] to bacterial inoculation (day −4), vaginal smears were stained with a modified Wright's stain (Hem3, Fisher HealthCare Protocol) and examined to identify mice in anestrus or in the diestrus stage of the estrous cycle. […] On day −2, mice were inoculated vaginally with 20 μl of strain H041 rpsL suspended in PBS; suspensions were passed through a […] filter to remove aggregates and adjusted to the absorbance A600 reading at 600 nm (A600) that was predicted to be 5×10^5 CFU/ml, which is the concentration needed to inoculate mice with the number of viable gonococci needed to infect 80% of mice (infectious dose 80; ID80). […]
Vaginal swabs were quantitatively cultured for Gc on days −1 and 0 following vaginal inoculation to confirm infection prior to treatment. […]

[6] = tested on: E. coli; test: MIC against clinical strains; format: cell-based; settings: Escherichia coli; E. coli clinical strains (n = 10)
Method: (§4) The antibiotic activities of the compounds useful in the methods of the disclosure are evaluated by measurements of minimum inhibitory concentrations (MICs) using E. coli, P. aeruginosa, K. pneumoniae and B. cepacia.

[7] = tested on: P. aeruginosa; test: MIC against clinical strains; format: cell-based; settings: Pseudomonas aeruginosa; P. aeruginosa clinical strains (n = 10)
Method: as §4

[8] = tested on: K. pneumoniae; test: MIC against clinical strains; format: cell-based; settings: Klebsiella pneumoniae; K. pneumoniae clinical strains (n = 10)
Method: as §4

[9] = tested on: B. cepacia; test: MIC against clinical strains; format: cell-based; settings: Burkholderia cepacia; B. cepacia clinical strains (n = 5)
Method: as §4

[10] = tested on: E. coli strain O18:H7:K1; test: murine E. coli intraperitoneal sepsis model; format: in vivo; settings: mice infected with E. coli O18:H7:K1, single dose
Text: FIG. 3 illustrates in vivo efficacy of Example 4 in the murine E. coli sepsis model. (A) dose response curves of Example 4 in a murine intraperitoneal sepsis model. Mice were infected with the E. coli strain O18:H7:K1.

[11] = tested on: N. gonorrhoeae HO41; settings: literature value (Ohnishi et al. 2011); cited from earlier work
[12] = tested on: N. gonorrhoeae F89; settings: literature value (Unemo et al. 2011); cited from earlier work

C[C@@](O)(C(F)F)[C@H](NCCCc1ccc(-c2ccccc2)cc1)C(=O)NO
MIC N. gonorrhoeae 35/02 [1]: 0.03 | MIC N. gonorrhoeae F89 [2]: 0.03 | MIC N. gonorrhoeae HO41 [3]: 0.03 | MIC N. gonorrhoeae FA19 [4]: 0.02

C[C@@](O)(C(F)F)[C@H](NC(=O)c1ccc(-c2ccccc2)cc1)C(=O)NO [Example 2, N-((2S,3S)-4,4-difluoro-3-hydroxy-1-(hydroxyamino)-3-methyl-1-oxobutan-2-yl)-[1,1′-biphenyl]-4-carboxamide]
MIC N. gonorrhoeae 35/02 [1]: 0.02 | MIC N. gonorrhoeae F89 [2]: 0.007 | MIC N. gonorrhoeae HO41 [3]: 0.004 | MIC N. gonorrhoeae FA19 [4]: 0.002

CC(C)(C)C(=O)ONC(=O)[C@@H](NC(=O)c1ccc(-c2ccccc2)cc1)[C@](C)(O)C(F)F [Example 3, N-((2S,3S)-4,4-difluoro-3-hydroxy-3-methyl-1-oxo-1-((pivaloyloxy)amino)butan-2-yl)-[1,1′-biphenyl]-4-carboxamide]
in vivo efficacy, administered orally ([5]; female BALB/c mice, vaginal infection with H041 rpsL, oral, four consecutive days): exhibited in vivo efficacy | in vivo efficacy, administered intraperitoneally ([5]; mice infected with H041 N. gonorrhoeae, intraperitoneal, once daily vs twice daily at half of the dose): once daily treatment (circles) is more effective than the twice daily treatment at half of the dose

C[C@@](O)(C(F)F)[C@H](NC(=O)c1ccc(C#CC#CC2CC2)cc1)C(=O)NO [Example 4, 4-(cyclopropylbuta-1,3-diyn-1-yl)-N-((2S,3S)-4,4-difluoro-3-hydroxy-1-(hydroxyamino)-3-methyl-1-oxobutan-2-yl)benzamide]
MIC50 [6]: 0.02 µg/mL (≈ 0.0531 µM) | MIC90 [6]: 0.02 µg/mL (≈ 0.0531 µM) | MIC50 [7]: 0.16 µg/mL (≈ 0.425 µM) | MIC90 [7]: 0.32 µg/mL (≈ 0.85 µM) | MIC50 [8]: 0.06 µg/mL (≈ 0.159 µM) | MIC90 [8]: 0.25 µg/mL (≈ 0.664 µM) | MIC50 [9]: 0.03 µg/mL (≈ 0.0797 µM) | MIC90 [9]: 0.13 µg/mL (≈ 0.345 µM) | clearance of E. coli infection [10]: cleared E. coli infections in the majority of mice | MIC N. gonorrhoeae 35/02 [1]: 0.063 | MIC N. gonorrhoeae F89 [2]: 0.008 | MIC N. gonorrhoeae HO41 [3]: 0.026 | MIC N. gonorrhoeae FA19 [4]: 0.016

CO/N=C(\C(=O)N[C@@H]1C(=O)N2C(C(=O)O)=C(CSc3nc(=O)c(=O)[nH]n3C)CS[C@H]12)c1csc(N)n1 [ceftriaxone]
MIC of ceftriaxone, strain H041 [11]: 2 to 4 µg/mL | MIC of ceftriaxone, strain F89 [12]: 2 µg/mL
